Patent US11690832B2, “Treatment of autoimmune diseases with combinations of RXR agonists and thyroid hormones” (Io Therapeutics, Inc., priority 2016, dated 2023)
Entries after “also recorded” stand apart in the source; their conditions may differ.

Legend:
[1] = molecular target: RARα (Homo sapiens, UniProt P10276); conditions: at ≥1 μM
Method: To determine whether a RXR agonist can mediate its effects via RXRα receptor homodimers, RXRβ receptor homodimers, RXRγ receptor homodimers, or any combination thereof, or the corresponding RAR/RXR heterodimers, receptor-mediated transactivation assays were performed. For transactivation assays assessing RXR homodimer signaling, CV-1 cells were transfected with 1) an expression construct including a full length RXRα, RXRβ, or RXRγ; and 2) a rCRBPII/RXRE-tk-Luc reporter construct that included RXR homodimer-specific RXRE/DR1 responsive element linked to a luciferase gene. For transactivation assays assessing RAR/RXR heterodimer signaling, CV-1 cells were transfected with 1) an expression construct comprising a fusion protein including an estrogen receptor (ER) DNA binding domain linked to the ligand binding domain of RARα, RARβ, or RARγ and 2) a ERE-tk-Luc reporter construct that included an estrogen receptor responsive element linked to a luciferase gene. […] Data are mean values ±SE from five independent experiments.

[2] = molecular target: T1, FXR/RXR (Homo sapiens, UniProt P19793); assay: Permissive heterodimer transactivation assay, 3x(IBABP/IRI)-tk-Luc in CV-1 cells; format: cell-based; conditions: 20 hr; relative to GW4064
T1 construct: expressed in transfected cells; host or cells: CV-1
Source text: (§1) For PPARγ: CV-1 cells were transfected with 3×(rAOX/DR1)-tk-Luc reporter gene and an expression vector for PPARγ. For FXR:CV-1 cells were transfected with 3×(IBABP/IRI)-tk-Luc reporter gene and vectors for FXR and RXRα. For LXR:CV-1 cells were transfected with 3×(PLTP/LXRE)-tk-Luc reporter gene with vectors for LXRα or LXRβ. For Nurr1: COS7 cells were transfected with 3×NBRE-tk-luc reporter gene and full length Nurr-1 with or without full-length RXRα plasmid. […] Luciferase data were normalized to co-transfected β-gal activity. Luciferase activity was expressed as percent of maximal activity obtained using specific agonists. Rosiglitazone (PPARγ), GW4064 (FXR), T0901317 (LXR).

[3] = tested on: cuprizone plus rapamycin (CR) demyelination in C57BL/6J mice
Source text: Animals (8 week-old male C57BL/6J mice) were subjected to cuprizone diet plus rapamycin injections (CR) for 6 weeks to induce demyelination. […] All animals were sacrificed after 6 weeks of CR to evaluate axonal integrity and microglial/macrophage activity in the white matter (corpus callosum, CC).
A total of 50 animals were included in the study, where 43 animals received CR demyelination for 6 weeks. During demyelination, a subset (n=7) of animals were kept on normal diet to serve as naïve age-matched controls.

[4] = tested on: LXRβ/RXR; assay: Permissive heterodimer transactivation assay, 3x(PLTP/LXRE)-tk-Luc in CV-1 cells; format: cell-based; conditions: 20 hr; relative to T0901317
Source text: as §1

[5] = tested on: LXRα/RXR; assay: as above; format: cell-based; conditions: 20 hr; relative to T0901317
Source text: as §1

[6] = tested on: EAE in B6 mice; assay: EAE dose titration experiment with spleen and CNS flow cytometry; format: in vivo, mouse; conditions: 200 μg/day vs vehicle control
Method: A dose titration experiment was also conducted in EAE mice. EAE was induced in 28 B6 mice with MOG/CFA and PT as above. Mice were scored on day 7 as indicated above and divided into groups by score so means are as equal as possible.
At the completion of the experiment, the vehicle control and 200 μg/day groups were euthanized and spleen and CNS samples obtained.
Additionally, CD4+ CD25hi cells (generally consisting of TReg) were reduced, although the frequency was not altered (FIGS. 9A and 9B).
Restimulation with PMA/lonomycin was used to help detect the cytokine production.

[7] = molecular target: T2, RXRγ (Homo sapiens, UniProt P48443); assay: RXR homodimer transactivation assay (rCRBPII/RXRE-tk-Luc reporter) in CV-1 cells; format: cell-based
T2 construct: an expression construct including a full length RXRα, RXRβ, or RXRγ; expressed in transfected cells; host or cells: CV-1
T2 sequence (P48443 1-463): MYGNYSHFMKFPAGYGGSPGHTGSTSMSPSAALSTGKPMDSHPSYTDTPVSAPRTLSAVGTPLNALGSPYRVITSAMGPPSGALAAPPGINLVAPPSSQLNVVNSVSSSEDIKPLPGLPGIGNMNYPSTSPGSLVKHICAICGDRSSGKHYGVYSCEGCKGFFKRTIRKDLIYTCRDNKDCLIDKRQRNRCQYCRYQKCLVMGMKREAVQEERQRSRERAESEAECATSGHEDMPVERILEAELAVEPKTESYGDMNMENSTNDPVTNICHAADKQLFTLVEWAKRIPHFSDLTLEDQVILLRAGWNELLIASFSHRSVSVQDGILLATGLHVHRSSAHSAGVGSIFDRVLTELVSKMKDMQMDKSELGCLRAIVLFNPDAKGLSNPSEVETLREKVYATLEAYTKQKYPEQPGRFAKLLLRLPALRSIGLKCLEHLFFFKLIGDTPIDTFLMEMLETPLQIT
Method: To determine whether a RXR agonist can mediate its effects via RXRα receptor homodimers, RXRβ receptor homodimers, RXRγ receptor homodimers, or any combination thereof, or the corresponding RAR/RXR heterodimers, receptor-mediated transactivation assays were performed. For transactivation assays assessing RXR homodimer signaling, CV-1 cells were transfected with 1) an expression construct including a full length RXRα, RXRβ, or RXRγ; and 2) a rCRBPII/RXRE-tk-Luc reporter construct that included RXR homodimer-specific RXRE/DR1 responsive element linked to a luciferase gene. For transactivation assays assessing RAR/RXR heterodimer signaling, CV-1 cells were transfected with 1) an expression construct comprising a fusion protein including an estrogen receptor (ER) DNA binding domain linked to the ligand binding domain of RARα, RARβ, or RARγ and 2) a ERE-tk-Luc reporter construct that included an estrogen receptor responsive element linked to a luciferase gene. The ER-RAR fusion proteins provided an accurate readout of only the transfected ER-RAR. […] Data are mean values ±SE from five independent experiments.

[8] = tested on: ethidium bromide demyelination of caudal cerebellar peduncles in one year old rats; assay: Focal toxin (ethidium bromide) induced rat model of demyelination; format: in vivo; conditions: IRX4204 10 mg/kg/day oral
Method: The experiment uses rats of relatively advanced age (1 year) since such rats undergo remyelination in a less efficient manner, thereby providing data that are more relevant to the clinical treatment of human patients with multiple sclerosis or other demyelination disorders.
Focal demyelination is induced in one year old rats (approximately 300 g in weight) by injecting stereotactically 5 μl of ethidium bromide solution (0.01% vol/vol in saline) in a bilateral manner into the caudal cerebellar peduncles (CCP). […] The rats are killed on day 24 post-ethidium bromide treatment for analysis of remyelination by quantitative polymerase chain reaction (qPCR) and microscopy.

[9] = tested on: Naive CD4+ CD25− FoxP3− cells; assay: T cell differentiation under Th17 cell differentiation conditions (Foxp3, IL-17A); format: cell-based, mouse; conditions: 0, 1, 10, 100 nM, with increasing concentration
Method: To determine whether a RXR agonist can regulate T cell differentiation, the ability of an RXR agonist to promote Treg cell differentiation and inhibit Th17 cell differentiation under Th17 cell differentiation conditions was assessed by monitoring Foxp3 and IL-17A expression. Naive CD4^+ CD25^− FoxP3^− cells were purified from a Foxp3-GFP mouse using flow cytometry by sorting and isolating based upon a GFP^− phenotype.

[10] = tested on: oligodendrocyte precursor cells (OPCs); assay: Oligodendrocyte precursor cell differentiation (PLP-EGFP, Cellomics); format: cell-based, mouse; conditions: compared to negative control (DMSO)
Source text: OPCs were generated from a neurosphere culture of E14.5 PLP-EGFP (on C57BL/6J background) mouse brains. […] The EGFP expressing cells were quantified with Cellomics Neuronal Profiling Algorithm.
The EGFP expressing cells in controls and all compounds were quantified with Cellomics Neuronal Profiling Algorithm.

[11] = tested on: EAE in C57BL/6 (B6) mice; assay: CNS infiltrating cells in EAE mice (FACS, day 20); format: in vivo, mouse; conditions: day 20 after immunization, vs vehicle control
Method: To determine whether a RXR agonist can reduce central nervous system (CNS) infiltrating cells, C57BL/6 (B6) mice were treated as described in Example 6. On day 20 after immunization, mice were sacrificed and perfused with phosphate buffered saline (PBS). Brain and spinal cord tissue was isolated, digested with DNase and Liberase DL (Roche Diagnostics, Indianapolis, Ind.) for 30 minutes, and homogenized through 70 micron nylon mesh filters. Resulting cells were placed over a Percoll gradient to remove myelin. The remaining cells (microglia and CNS infiltrating cells) were counted, stained for molecules of interest, and run on a flow cytometer. Based on the frequencies obtained by FACS of these cell populations, total cell numbers of CNS infiltrating leukocytes expressing CD45, including CD4^+ T cells and CD11c^+ CD11b^+ myeloid dendritic cells (DC), were calculated.

[12] = tested on: cuprizone/rapamycin demyelination in C57BL/6J mice; assay: 12-week cuprizone/rapamycin demyelination model, 6 weeks of treatment (remyelination); format: in vivo, mouse; conditions: 10 mg/kg PO daily for 6 weeks after 12 weeks CR
Source text: All animals were sacrificed after 12 weeks of CR or after further 6 weeks of treatment to evaluate myelin in white matter (corpus callosum) and gray matter (hippocampus and cortex). In addition, the size of myelinated axons was quantified and the large myelinated axons were further assessed by 3D-electron microscopy (3D-EM). A total of 40 animals were included in the study, where all 40 animals received CR demyelination for 12 weeks. After demyelination, a subset (n=10) of animals are sacrificed to serve as controls to assess baseline demyelination. […] Floating brain sections are immunostained with myelin prolipid protein (PLP) to visualize and quantify myelin in gray matter, hippocampus (FIG. 16A) and cortex (FIG. 16B).

[13] = tested on: Naive CD4+ CD25− FoxP3− cells; assay: Treg cell differentiation with RXR agonist in the presence of pan-RAR antagonist; format: cell-based, mouse; conditions: 1 nM or 10 nM 194310 with IRX4204 at 1.0 nM; Treg conditions
Method: Naive CD4^+ CD25^− FoxP3^− cells were purified from a Foxp3-GFP mouse using flow cytometry by sorting and isolating based upon a GFP^− phenotype. These cells were then cultured under Treg cell differentiation conditions by treating the cells with αCD3 and αCD28 polyclonal antibodies in the presence of IL-2 and TGF-β. […] The cultured cells were then assayed for the expression of Foxp3. […] However, this partial inhibition of Fox3p expression may actually be due to the blocking of the effects of endogenous RA in the culture medium.

T1 sequence (Q96RI1 whole entry partner): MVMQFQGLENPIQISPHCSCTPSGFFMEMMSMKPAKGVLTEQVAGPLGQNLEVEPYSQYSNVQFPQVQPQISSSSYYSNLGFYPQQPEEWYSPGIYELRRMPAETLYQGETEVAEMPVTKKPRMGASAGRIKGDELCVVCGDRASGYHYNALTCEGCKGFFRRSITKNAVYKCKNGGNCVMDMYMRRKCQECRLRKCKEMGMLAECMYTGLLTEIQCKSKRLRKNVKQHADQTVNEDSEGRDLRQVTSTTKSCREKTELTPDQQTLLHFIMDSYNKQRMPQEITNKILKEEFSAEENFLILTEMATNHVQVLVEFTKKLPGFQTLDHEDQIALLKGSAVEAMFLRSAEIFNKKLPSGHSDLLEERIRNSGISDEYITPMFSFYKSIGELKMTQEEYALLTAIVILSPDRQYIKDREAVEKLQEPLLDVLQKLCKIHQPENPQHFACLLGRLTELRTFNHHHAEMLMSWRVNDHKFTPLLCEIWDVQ
T1 sequence (P19793 whole entry): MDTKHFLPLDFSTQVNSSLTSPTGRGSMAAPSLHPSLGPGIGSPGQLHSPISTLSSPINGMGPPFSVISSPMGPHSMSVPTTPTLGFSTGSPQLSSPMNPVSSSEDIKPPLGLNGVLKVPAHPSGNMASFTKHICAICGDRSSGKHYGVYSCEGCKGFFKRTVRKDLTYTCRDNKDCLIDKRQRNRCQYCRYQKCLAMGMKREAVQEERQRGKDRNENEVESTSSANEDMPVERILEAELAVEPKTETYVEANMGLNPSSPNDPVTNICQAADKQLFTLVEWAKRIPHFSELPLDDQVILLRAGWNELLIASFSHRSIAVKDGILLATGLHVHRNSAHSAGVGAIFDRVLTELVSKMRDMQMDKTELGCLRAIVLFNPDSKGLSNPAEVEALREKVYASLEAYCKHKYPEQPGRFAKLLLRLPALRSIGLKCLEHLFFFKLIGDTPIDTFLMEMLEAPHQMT
RARα, sequence (P10276 183-417 limits assumed, species assumed): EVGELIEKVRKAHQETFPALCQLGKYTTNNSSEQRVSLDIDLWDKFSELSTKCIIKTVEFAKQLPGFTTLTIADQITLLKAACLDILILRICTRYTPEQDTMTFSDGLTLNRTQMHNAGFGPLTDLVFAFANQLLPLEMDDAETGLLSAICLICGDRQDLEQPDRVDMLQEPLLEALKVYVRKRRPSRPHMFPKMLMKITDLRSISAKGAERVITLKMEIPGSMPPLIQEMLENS

| Structure (SMILES) | RARα activity detected [1] | activation of FXR/RXR heterodimer [2] | health concerns during the treatment phase ([3]; 6 weeks) | number of SMI32 positive axonal ovoids in corpus callosum ([3]; compared to Vehicle, 6 weeks concurrent with CR) | Iba1 staining (microglial/macrophage activation) in corpus callosum ([3]; compared to vehicle) | activation of LXRβ/RXR heterodimer [4] | activation of LXRα/RXR heterodimer [5] | CD4+ CD25hi cells frequency, spleen [6] | co-expression of IFNγ and IL-17A by CD4 T cells in CNS [6] | Efficacy (% of 1 μM IRX4204) RXRγ [7] | densities of Olig2+ oligodendrocyte lineage cells and CC1+ differentiated oligodendrocytes in lesions ([8]; day 7 to 21, ± 20 ng/g s.c. thyroxine) | Mbp and Pdgfra expression (real-time qPCR of lesion samples) ([8]; ± 20 ng/g s.c. thyroxine) | Foxp3 expression (Treg cells) [9] | IL-17A expression (Th17 cells) [9] | OPC differentiation into oligodendrocytes (EGFP positive cells) [10] | infiltration of CD4+ cells into CNS [11] | infiltration of CD11c+ CD11b+ cells (myeloid DC) into CNS [11] | size of myelinated axons in the corpus callosum [12] | effect on induction of Foxp3 expression by RXR agonist [13] |
| --- | --- | --- | --- | --- | --- | --- | --- | --- | --- | --- | --- | --- | --- | --- | --- | --- | --- | --- | --- |
| CC(/C=C/[C@@H]1C[C@]1(C)c1ccc2c(c1)C(C)(C)CCC2(C)C)=C\C(=O)O [IRX4204, 3,7-dimethyl-6(S),7(S)-methano,7-[1,1,4,4-tetramethyl-1,2,3,4-tetrahydronaphth-7-yl]2(E),4(E) heptadienoic acid] | minimal activity | not to transactivate; also recorded: does not activate | no observed health concerns | not statistically different from the Vehicle | no difference | not to transactivate; also recorded: does not activate | not to transactivate; also recorded: does not activate | not altered | not significantly different between groups | 0.09 ± 0.01 100 % of 1 μM IRX4204 | increased | increase | increased | decreased | significant increase; also recorded: dose dependent increase | significant reduction | significant reduction | significant increase | – |
| CCc1ccc(C2=CC(C)(C)Sc3ccc(C#Cc4ccc(C(=O)O)cc4)cc32)cc1 [Compound 194310] | – | – | – | – | – | – | – | – | – | – | – | – | – | – | – | – | – | – | only partially blocked |
